Patent publication US12582613B2, “Biomimetic, reactive oxygen species-detonable nanoclusters for antirestenotic therapy” (University of Virginia Patent Foundation, priority 2021, dated 2026)

Tests used:
[1] = in vivo; cited from earlier work
[2] = tested on: balloon-injured carotid arteries; assay: Morphometric analysis of IH and restenosis in rat carotid artery balloon angioplasty model; conditions: in vivo
Protocol: Rat Carotid Artery Balloon Angioplasty Model. All animal experiments conform to the protocols approved by the Animal Care and Use Committee (ACUC) of the University of Virginia. All adult male Sprague-Dawley rats (Charles River, weighing 300-350 g) were maintained in a temperature and humidity-controlled SPF level animal facility under a 12 h light-dark cycle. Food and water were available ad libitum. Animals were randomly assigned to each treatment group. The carotid artery balloon injury model was operated as previously described. In brief, after anesthesia with isoflurane (5% for inducing and 2% for maintaining), a mid-line incision in the neck was made, and the carotid arteries and carotid bifurcation were exposed by blunt dissection. The proximal of left carotid artery, inner carotid artery, and external carotid artery were then temporarily ligated with 5-0 nylon suture to avoid excessive blood loss during the surgery. A 1 mm arteriotomy was created on the distal segment of the external carotid arteries. […] Area inside external elastic lamina (EEL area), area inside internal elastic lamina (IEL area), lumen area, intima area (=IEL area—lumen area), and media area (=EEL area—IEL area) were calculated using Image J. Intimal hyperplasia was defined as the ratio of intima area versus media area (Intima-to-media ratio, I/M ratio).

PDGF-BB-stimulated VSMC = assay: PDGF-BB-induced VSMC proliferation assay (CellTiter-Glo); format: cell-based, Human; conditions: 1 μM RVX equivalent
Protocol: Cell Culture. Human aortic VSMC and culture media (SmBm-2 basal medium for experimental purposes, and SmGm-2 complete medium for expansion) were purchased from Lonza (Walkersville, MD). Cells between passages 5 and 7 were maintained at 37° C. with 5% CO2 and used for all experiments. As established in previous studies, Accutase (ThermoFisher Scientific, Waltham, MA) instead of Trypsin was used for cell detachment to ensure fast cell adhesion and optimal cell status.
Cell Viability Assay of the Nanoclusters. The cytotoxicity and anti-proliferation of the nanoclusters on VSMC was evaluated by a CellTiter-Glo Luminescent Cell Viability kit according to manufacturer's instructions. VSMC were cultured in 96-well plates ([…] and 8×10^4 cells/well for experiments of proliferation and cytotoxicity, respectively) and grown for overnight. For cytotoxicity study, fresh basal medium (supplemented with 0.5% fetal bovine serum) containing NC with different concentrations were added into the plates. For proliferation study, VSMC were treated with 20 nM PDGF-BB to stimulate ROS and proliferation. […] Following 10 min incubation at room temperature, the 96-well plates were analyzed in a FlexStation 3 Benchtop Multi-Mode Microplate Reader (Molecular Devices, San Jose, California) (250-ms integration).

## COc1cc(OC)c2c(=O)[nH]c(-c3cc(C)c(OCCO)c(C)c3)nc2c1 [RVX]
[1]
  half-life: 1.5 h
[2]
  intimal hyperplasia, intima-to-media (I/M) ratio: neither free RVX solution nor that delivered through conventional PLGA NP led to any significant changes
PDGF-BB-stimulated VSMC
  effect on VSMC proliferation: failed to exert any notable effect
